Laboratory results reported in patent US20170182015A1, “METHODS OF USING SNS-595 FOR TREATMENT OF CANCER SUBJECTS WITH REDUCED BRCA2 ACTIVITY” (Sunesis Pharmaceuticals, Inc., priority 2009, published 2017).
pIC50: −log10 of the molar value.

Tests used:
VC8 cells (BRCA2 mutant) = assay: Growth inhibition (proliferation) assay in BRCA2 mutant cells; assay type: cell-based, Chinese hamster; details: for pIC50: Cricetulus griseus, V-C8, VC8 cells mutant for BRCA2, 4 hr treatment, 120 hr incubation, resazurin; for increase in sensitivity in cells mutant for BRCA2 as compared to cells expressing functional BRCA2: VC8 vs VC8-B2, ratio of IC50
Protocol: (§1) The VC8 and VC8-B2 cell lines originate from V79 Chinese hamster […] fibroblast cells. VC8 has a mutation in the brca2 gene and VC8-B2 is this cell line complemented with the human chromosome 13 (containing the brca2 gene; […] Zwet et al., Mol Cell Biol, 2002, 22(2):669-679). The influence of BRCA2 on sensitivity to SNS-595 was evaluated by a proliferation assay in Chinese hamster cells mutant (VC8) and complemented for functional BRCA2 (VC8-B2). […] The following protocol was used for the assay: 1. 4000 cells/well were plated in a 96-well plate such that half of the plate contained VC8 cells, and other half contained VC8-B2 cells. The last column was left cell-free as background control. 2. The plate was incubated at 37° C. with 5% CO2. 1. The media was removed and 50 μL of fresh media was added into each well. 2. […] 3. 100 μL from the first column was transferred into second column and mixed. 100 μL from the second column was transferred into third column and mixed and so on until end of plate. One column was left untreated. The plate was incubated at 37° C. with 5% CO2. […] After 4 hr treatment, plate was washed twice with 100 μL PBS and 250 μL media was added. The plate was incubated at 37° C. with 5% CO2. 1. After 120 hr incubation, the plate was washed with 100 μL PBS and 100 μL resaszurin (10 μg/mL in phenol red-free complete DMEM) was added. 2.

[1] = tested on: VC8-B2 cells (complemented for functional BRCA2); assay: Growth inhibition (proliferation) assay in BRCA2 complemented cells; assay type: cell-based, Chinese hamster; details: Cricetulus griseus; VC8-B2 cells expressing functional BRCA2; 4 hr treatment, 120 hr incubation, resazurin
Protocol: as §1

[2] = tested on: SPD8 cells (hprt gene reversion by homologous recombination); assay: Recombination assay: HPRT mutation reversion frequency; assay type: cell-based, Chinese hamster; details: for reversion frequency: alone, SNS-595 2 μM, doxorubicin 0.5 μM, 4 hr treatment; for effect of S-phase block (aphidicolin co-treatment) on induced reversion rate / recombination events: co-treatment with aphidicolin 0.5 μM
Source text: (§2) The SPD8 cell line carries a spontaneously derived mutation in the hprt gene and was isolated as a 6-thioguanine (6TG) resistant clone from the V79 Chinese hamster fibroblast cell line. The mutation within the hprt gene is a tandem duplication of exon 7, intron 6, and the 3′ portion of exon 6 that results in expression of a non-functional HPRT protein (Darè et al., Somat Cell Mol Genet, 1996, 22:201-210; and Helleday et al., J Mol Biol, 1998, 279(4):687-694). This duplication can be lost through HR that revert the hprt gene to wild-type, which can be selected for in HAsT (50 μM hypoxanthine, 10 μM L-azaserine, 5 μM thymidine) (Helleday et al. 1998). The DMEM was supplemented with 6TG (5 μg/mL) in order to kill cells that undergo spontaneous reversion. The addition of 6TG at this concentration affects neither the growth rate of these mutants nor the recombination assay procedure.
(§3) Each flask (75 cm^2) was inoculated with 1.5×10^6 SPD8 cells 24 hr prior to treatment with SNS-595 (2 μM) or doxorubicin (0.5 μM) and in co-treatment with aphidicolin (0.5 μM). After 4 hr of treatment, flasks were rinsed twice with PBS and 20 mL DMEM was added. Cells were then incubated for 48 hr to recover before plating onto Petri dishes. Cloning efficiency was measured by plating 500 cells in 10 mL of medium, two Petri dishes per dose. HPRT+ revertants were selected for by plating 3×10^5 cells/dish in the presence of HAsT (50 μM hypoxanthine,10 μM L-azaserine, 5μM thymidine), three dishes per dose. After 7 and 10 days, respectively, the plates were harvested and the colonies were fixed and stained using methylene blue in methanol (4 g/L). Colonies containing more than 50 cells were counted.

U-2 OS cells = assay: Colony outgrowth assay (clonogenic survival), wild-type vs BRCA2 siRNA depleted; assay type: cell-based, human; details: 14 days
Protocol: Activity of SNS-595 in these assays was evaluated by clonogenic survival and compared with doxorubicin. The following protocol was used for the assay:
1. 200,000 cells were plated in each of 2 wells in a 6-well plate, and incubated over night at 37° C. and 5% CO2 atmosphere.
A: Test: 50 μL of 2 μM siBRCA2 (si Genome SMARTpool, Dharmacon)+150 μL OptiMEM (Gibco)
B: Control (no siRNA): 200 μL OptiMEM
C: 2 μL DharmaFect 1 (Dharmacon)+198 μL OptiMEM
2. Reagents were allowed to stand at room temperature for 5 minutes.
3. Reagents A+C and B+C were mixed and allowed to stand at room temperature for 20 min.
4. The media in wells was replaced with 1.6 mL of antibiotic-free media (DMEM, Gibco).
5. 400 μL of reagents A+B or B+C were added and mixed in wells. The plate was incubated at 37° C.
1. After 24 hr of siRNA treatment, cells were trypsinized and counted.
2. Cells were plated in 100 mm dishes at 500 or 1000 cells/dish in 10 mL media and incubated for 4 hr.
3. After 4 hr, test substances were added and plates were incubated for 14 days.
1. The plates were harvested and cells were fixed in methylene blue (4g/L in methanol) and colonies containing more than 50 cells were counted.

SPD8 cells [3] = assay: Recombination assay: cloning efficiency; assay type: cell-based, Chinese hamster; details: SNS-595 2 μM, doxorubicin 0.5 μM; for cloning efficiency: alone, 4 hr treatment; for effect of aphidicolin (S-phase blocker) co-treatment on cytotoxicity: co-treatment with aphidicolin 0.5 μM
Source text: as §2, §3

SPD8 cells [4] = assay: Pulsed field gel electrophoresis (PFGE) of DNA fragments; assay type: cell-based, Chinese hamster
Source text: as §2
Two million (2×10^6) SPD8 cells were seeded in flasks (75 cm^2) and incubated overnight. Subsequently, cells were treated with SNS-595 (20 μM) or doxorubicin (3 μM) and in co-treatment with aphidicolin (3 μM) for 4 hr before being melted into agarose insert (1×10^6 cells/70 μL 1% InCert Agarose, BMA). Inserts were transferred to 0.5 M EDTA, 1% N-laurylsarcosyl and proteinase K (1 mg/mL) and incubated at 50° C. for 48 hr and thereafter washed four times in TE-buffer (2 hr between each wash) prior to loading onto an agarose separation gel (1% Chromosomal grade agarose, Bio-Rad). Separation was performed on a CHEF DR III system (BioRad; 120° field angle, 240 seconds switch time, 4 V/cm) for 18 hr or for 24 hours with 60 to 240 seconds switch time. The gel was stained with ethidium bromide for 5 hr and subsequently analyzed by scanning fluorescence reader (Molecular Imager FX, BioRad) using Quantative One software.

## CN[C@H]1CN(c2ccc3c(=O)c(C(=O)O)cn(-c4nccs4)c3n2)C[C@@H]1OC [SNS-595, (+)-1,4-dihydro-7-[(3S,4S)-3-methoxy-4-(methylamino)-1-pyrrolidinyl]-4-oxo-1-(2-thiazolyl)-1,8-naphthyridine-3-carboxylic acid]
VC8 cells (BRCA2 mutant)
  pIC50: 6.85
  increase in sensitivity in cells mutant for BRCA2 as compared to cells expressing functional BRCA2: approximately 5 fold
[1]
  pIC50: 6.14
[2]
  reversion frequency: increased
  effect of S-phase block (aphidicolin co-treatment) on induced reversion rate / recombination events: no effect
U-2 OS cells
  sensitivity of U-2 OS cells depleted for BRCA2 using siRNA relative to wild-type cells: 4.6 ×
SPD8 cells [3]
  cloning efficiency: significantly impaired
  effect of aphidicolin (S-phase blocker) co-treatment on cytotoxicity: reduction in cytotoxicity

## COc1cccc2c1C(=O)c1c(O)c3c(c(O)c1C2=O)C[C@@](O)(C(=O)CO)C[C@@H]3O[C@H]1C[C@H](N)[C@H](O)[C@H](C)O1 [doxorubicin]
VC8 cells (BRCA2 mutant)
  pIC50: 7.30
  increase in sensitivity in cells mutant for BRCA2 as compared to cells expressing functional BRCA2: approximately 4 fold
[1]
  pIC50: 6.72
[2]
  reversion frequency: increased
  effect of S-phase block (aphidicolin co-treatment) on induced reversion rate / recombination events: significantly reduced
SPD8 cells [4]; FIG. 5 and 6, SNS-595 20 μM, doxorubicin 3 μM, 4 hr, PFGE 18 hr and 24 hr runs
  production of small DNA fragments: more small DNA fragments
SPD8 cells [4]; FIG. 7, 18 hr PFGE run, 240 seconds switch time
  production of small DNA fragments: more small DNA fragments
SPD8 cells [4]; FIG. 8, 24 hr PFGE run, 60 to 240 seconds switch time
  production of small DNA fragments: more small DNA fragments
SPD8 cells [3]
  cloning efficiency: significantly impaired
  effect of aphidicolin (S-phase blocker) co-treatment on cytotoxicity: reduction in cytotoxicity
